{"source": "paper doi:10.1101/2025.11.20.689572v1", "about": "(biorxiv, 2025)", "molecular_target": "T1, M1 (Homo sapiens, UniProt P11229)", "T1 construct": "gene CHRM1; full-length receptor; HEK293 with TRUPATH sensors (function)", "T1 sequence (P11229 1-460)": "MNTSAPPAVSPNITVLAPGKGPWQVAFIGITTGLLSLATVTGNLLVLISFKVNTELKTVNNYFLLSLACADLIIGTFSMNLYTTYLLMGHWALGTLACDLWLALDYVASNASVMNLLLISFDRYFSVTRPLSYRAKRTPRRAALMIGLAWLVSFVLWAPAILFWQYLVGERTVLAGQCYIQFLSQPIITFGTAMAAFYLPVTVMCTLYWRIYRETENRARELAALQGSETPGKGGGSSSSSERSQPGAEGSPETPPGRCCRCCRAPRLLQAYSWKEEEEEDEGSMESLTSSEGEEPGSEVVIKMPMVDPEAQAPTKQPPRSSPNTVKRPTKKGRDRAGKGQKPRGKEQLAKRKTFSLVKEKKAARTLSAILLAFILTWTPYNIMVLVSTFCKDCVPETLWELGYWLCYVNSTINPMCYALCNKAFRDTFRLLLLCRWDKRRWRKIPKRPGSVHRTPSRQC", "test": "competitive radioligand binding, HEK293 membranes", "data": [{"smiles": "CCCCCCOc1nsnc1C1=CCCNC1", "note": "[N-desmethylxanomeline]", "values": [{"measurement": "Ki", "value": 219, "unit": "nM"}]}]}
